Experimental data taken from PubChem BioAssay (NCI).
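Each compound was tested at five concentrations against cells in 96-well plates for 48 hours. The concentration for 50% growth inhibition is given as GI50. TGI is the concentration that stops growth completely.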

Experiments:
Assay in all cases: NCI anticancer screen, dose series, 48 h
NCI-H226 lung = system: NCI-H226 lung
NCI-H23 lung = system: NCI-H23 lung
NCI-H460 lung = system: NCI-H460 lung
NCI-H522 lung = system: NCI-H522 lung
NCI/ADR-RES ovarian = system: NCI/ADR-RES ovarian
OVCAR-3 ovarian = system: OVCAR-3 ovarian
OVCAR-4 ovarian = system: OVCAR-4 ovarian
OVCAR-5 ovarian = system: OVCAR-5 ovarian
OVCAR-8 ovarian = system: OVCAR-8 ovarian
PC-3 prostate = system: PC-3 prostate
RPMI-8226 leukemia = system: RPMI-8226 leukemia
RXF 393 renal = system: RXF 393 renal
SF-268 CNS = system: SF-268 CNS
SF-295 CNS = system: SF-295 CNS
SF-539 CNS = system: SF-539 CNS
SK-MEL-2 melanoma = system: SK-MEL-2 melanoma
SK-MEL-28 melanoma = system: SK-MEL-28 melanoma
SK-MEL-5 melanoma = system: SK-MEL-5 melanoma
SK-OV-3 ovarian = system: SK-OV-3 ovarian
SN12C renal = system: SN12C renal
SNB-19 CNS = system: SNB-19 CNS
SNB-75 CNS = system: SNB-75 CNS
SR leukemia = system: SR leukemia
SW-620 colon = system: SW-620 colon
T-47D breast = system: T-47D breast
TK-10 renal = system: TK-10 renal
U251 CNS = system: U251 CNS
UACC-257 melanoma = system: UACC-257 melanoma
UO-31 renal = system: UO-31 renal

COc1ccc(N2CCN(CC(=O)N3CCN(c4nnc(-c5ccccc5)c(-c5ccccc5)n4)CC3)CC2)cc1
TGI (NCI-H226 lung): > 100 µM
GI50 (NCI-H23 lung): 6.06 µM
TGI (NCI-H23 lung): > 100 µM
GI50 (NCI-H460 lung): 5.96 µM
TGI (NCI-H460 lung): > 100 µM
GI50 (NCI-H522 lung): 19.1 µM
TGI (NCI-H522 lung): > 73.2 µM
GI50 (NCI/ADR-RES ovarian): 8.68 µM
TGI (NCI/ADR-RES ovarian): > 100 µM
GI50 (OVCAR-3 ovarian): 4.92 µM
TGI (OVCAR-3 ovarian): > 93.4 µM
GI50 (OVCAR-4 ovarian): 3.61 µM
TGI (OVCAR-4 ovarian): > 100 µM
GI50 (OVCAR-5 ovarian): > 100 µM
TGI (OVCAR-5 ovarian): > 100 µM
GI50 (OVCAR-8 ovarian): 35.8 µM
TGI (OVCAR-8 ovarian): > 100 µM
GI50 (PC-3 prostate): 5.5 µM
TGI (PC-3 prostate): > 100 µM
GI50 (RPMI-8226 leukemia): 3.98 µM
TGI (RPMI-8226 leukemia): 31.1 µM
GI50 (RXF 393 renal): 7.88 µM
TGI (RXF 393 renal): > 61.2 µM
GI50 (SF-268 CNS): 9.16 µM
TGI (SF-268 CNS): > 100 µM
GI50 (SF-295 CNS): 4.15 µM
TGI (SF-295 CNS): > 100 µM
GI50 (SF-539 CNS): 7.71 µM
TGI (SF-539 CNS): > 81.9 µM
GI50 (SK-MEL-2 melanoma): 51.3 µM
TGI (SK-MEL-2 melanoma): > 100 µM
GI50 (SK-MEL-28 melanoma): 11.9 µM
TGI (SK-MEL-28 melanoma): > 100 µM
GI50 (SK-MEL-5 melanoma): 2.32 µM
TGI (SK-MEL-5 melanoma): 6.63 µM
GI50 (SK-OV-3 ovarian): > 27.9 µM
TGI (SK-OV-3 ovarian): > 100 µM
GI50 (SN12C renal): 8.64 µM
TGI (SN12C renal): > 100 µM
GI50 (SNB-19 CNS): > 33.6 µM
TGI (SNB-19 CNS): > 100 µM
GI50 (SNB-75 CNS): 7.63 µM
TGI (SNB-75 CNS): > 100 µM
GI50 (SR leukemia): 2.41 µM
TGI (SR leukemia): 6.97 µM
GI50 (SW-620 colon): 10.4 µM
TGI (SW-620 colon): > 100 µM
GI50 (T-47D breast): 2.56 µM
TGI (T-47D breast): 18.5 µM
GI50 (TK-10 renal): 9.39 µM
TGI (TK-10 renal): > 100 µM
GI50 (U251 CNS): 6.43 µM
TGI (U251 CNS): > 100 µM
GI50 (UACC-257 melanoma): 27.1 µM
TGI (UACC-257 melanoma): > 90.6 µM
GI50 (UO-31 renal): 3.94 µM
TGI (UO-31 renal): > 90.6 µM
